Measured values reported in patent publication US20080120733A1, “Rnai-Based Method for Selecting Transfected Eukaryotic Cells” (GBF-GESELLSCHAFT FUR BIOTECHNOLOGISCHE FORSCHUNG, priority 2004, published 2008).

Key:
APRT = experiment: Effect of selection media on wild type, APRT-RNAi and APRT knock out cells (survival / cell death); format: cell-based; details: for Effect of selection medium on cells: RNAi: cells expressing RNAi-constructs directed against APRT; for Effect of selection medium on cells: knock out: cells with APRT inactivated on the chromosomal level; for Effect of selection medium on cells: wild type: gene APRT; for all read-outs here: key: Survival of the cells in the respective selective conditions is marked +; cell death in the respective selective condition is marked −
HPRT = experiment: Effect of selection media on wild type, HPRT-RNAi and HPRT knock out cells (survival / cell death); format: cell-based; details: for Effect of selection medium on cells: RNAi: cells expressing RNAi-constructs directed against HPRT; for Effect of selection medium on cells: knock out: cells with HPRT inactivated on the chromosomal level; for Effect of selection medium on cells: wild type: gene HPRT
thymidine kinase = experiment: Effect of selection media on wild type, thymidine kinase-RNAi and thymidine kinase knock out cells (survival / cell death); format: cell-based; details: for Effect of selection medium on cells: RNAi: cells expressing RNAi-constructs directed against thymidine kinase; for Effect of selection medium on cells: knock out: cells with thymidine kinase inactivated on the chromosomal level; for Effect of selection medium on cells: wild type: gene thymidine kinase; for all read-outs here: key: Survival of the cells in the respective selective conditions is marked +; cell death in the respective selective condition is marked −

Nc1nc(F)nc2nc[nH]c12 [2-fluoroadenine]
Effect of selection medium on cells: RNAi (APRT): + | Effect of selection medium on cells: knock out (APRT): + | Effect of selection medium on cells: wild type (APRT): −

Nc1nc2c(ncn2[C@@H]2O[C@H](CO)[C@@H](O)[C@H]2O)c(=S)[nH]1 [6-thioguanosine]
Effect of selection medium on cells: RNAi (HPRT): + | Effect of selection medium on cells: knock out (HPRT): + | Effect of selection medium on cells: wild type (HPRT): −

Nc1ncnc2nn[nH]c12 [8-azaadenine]
Effect of selection medium on cells: RNAi (APRT): + | Effect of selection medium on cells: knock out (APRT): + | Effect of selection medium on cells: wild type (APRT): −

Nc1nc2c(nnn2[C@@H]2O[C@H](CO)[C@@H](O)[C@H]2O)c(=O)[nH]1 [8-azaguanosine]
Effect of selection medium on cells: RNAi (HPRT): + | Effect of selection medium on cells: knock out (HPRT): + | Effect of selection medium on cells: wild type (HPRT): −

O=c1[nH]c(=O)n([C@H]2C[C@H](O)[C@@H](CO)O2)cc1Br [bromodesoxyuridine]
Effect of selection medium on cells: RNAi (thymidine kinase): + | Effect of selection medium on cells: knock out (thymidine kinase): + | Effect of selection medium on cells: wild type (thymidine kinase): −

Nc1nc(N)c2nc[nH]c2n1 [diaminopurine]
Effect of selection medium on cells: RNAi (APRT): + | Effect of selection medium on cells: knock out (APRT): + | Effect of selection medium on cells: wild type (APRT): −

CN(Cc1cnc2nc(N)nc(N)c2n1)c1ccc(C(=O)N[C@@H](CCC(=O)O)C(=O)O)cc1 [methotrexate]
Effect of selection medium on cells: RNAi (DHFR; cells expressing RNAi-constructs directed against DHFR): − | Effect of selection medium on cells: knock out (DHFR; cells with DHFR inactivated on the chromosomal level): − | Effect of selection medium on cells: wild type (DHFR; wild type cells, gene DHFR): +

O=c1[nH]c(=O)n([C@H]2C[C@H](O)[C@@H](CO)O2)cc1C(F)(F)F [trifuorothymidine]
Effect of selection medium on cells: RNAi (thymidine kinase): + | Effect of selection medium on cells: knock out (thymidine kinase): + | Effect of selection medium on cells: wild type (thymidine kinase): −
